Reference: publication PMC4683377, “BODIPY-Based Fluorescent Probes for Sensing Protein Surface-Hydrophobicity” (Scientific Reports, 2015)

Legend:
[1] = molecular target: T1, bovine serum albumin (BSA) (Bos taurus, UniProt P02769); assay: fluorescence titration ([…] dye, protein varied); format: binding
T1 construct: gene ALB

apomyoglobin (ApoMb) = molecular target: T2, apomyoglobin (ApoMb) (Equus caballus, UniProt P68082); assay: fluorescence titration ([…] dye, protein varied); format: binding
T2 construct: gene MB; apo form (heme removed) prepared from equine myoglobin
T2 sequence (P68082 2-154): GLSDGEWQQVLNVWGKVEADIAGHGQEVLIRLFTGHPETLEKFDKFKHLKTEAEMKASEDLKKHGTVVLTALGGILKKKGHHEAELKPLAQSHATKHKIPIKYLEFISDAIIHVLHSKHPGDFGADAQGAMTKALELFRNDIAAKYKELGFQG

T1 sequence (P02769 25-607): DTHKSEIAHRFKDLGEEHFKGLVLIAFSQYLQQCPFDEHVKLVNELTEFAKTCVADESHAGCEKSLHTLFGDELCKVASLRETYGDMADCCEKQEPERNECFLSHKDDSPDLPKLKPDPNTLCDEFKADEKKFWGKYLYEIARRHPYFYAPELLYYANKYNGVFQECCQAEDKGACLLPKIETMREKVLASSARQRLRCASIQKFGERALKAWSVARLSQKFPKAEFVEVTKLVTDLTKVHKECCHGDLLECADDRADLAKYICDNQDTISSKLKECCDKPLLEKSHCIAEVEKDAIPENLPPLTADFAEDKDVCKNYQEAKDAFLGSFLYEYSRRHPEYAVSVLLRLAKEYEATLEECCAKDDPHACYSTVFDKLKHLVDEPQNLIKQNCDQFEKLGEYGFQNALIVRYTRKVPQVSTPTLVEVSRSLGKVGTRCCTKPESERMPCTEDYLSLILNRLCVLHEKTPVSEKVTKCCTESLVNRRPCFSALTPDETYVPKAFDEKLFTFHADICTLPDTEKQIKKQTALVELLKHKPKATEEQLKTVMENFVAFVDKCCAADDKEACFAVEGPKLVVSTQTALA

- Kd [1]: 34 nM
- Kd (apomyoglobin (ApoMb)): 330 nM
Structure (SMILES): COCCNC1=[N+]2C(=C(c3ccc(OC)cc3)c3ccc(NCCOC)n3[B-]2(F)F)C=C1 [compound 2, HPsensor 2]
